The values that follow are results of earlier work, collected in patent US4975422A, “Angiogenesis inhibitor” (Kureha Kagaku Kogyo Kabushiki Kaisha, priority 1988, dated 1990).

The structures appear in SMILES notation.

For the series the following is noted: oral; species not stated.

As usually defined, the LD50 is the dose at which mortality reaches 50%. As to `COc1ccc2c(c1)c(CC(=O)O)c(C)n2C(=O)c1ccc(Cl)cc1` [indomethacin], the LD50 is 50 mg/kg.
